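Results reflect a 48-hour exposure of cells in 96-well plates to compound at five concentrations. GI50: concentration for 50% inhibition of growth. TGI marks complete inhibition of growth.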
How the values were obtained:
Assay in all cases: DTP human tumour cell line panel, 48 h
786-0 renal = system: 786-0 renal
A498 renal = system: A498 renal
A549 NSCLC = system: A549 NSCLC
ACHN renal = system: ACHN renal
CAKI-1 renal = system: CAKI-1 renal
CCRF-CEM leukemia = system: CCRF-CEM leukemia
COLO 205 colon = system: COLO 205 colon
DLD-1 colon = system: DLD-1 colon
DMS 273 small cell lung = system: DMS 273 small cell lung
EKVX NSCLC = system: EKVX NSCLC
HCC-2998 colon = system: HCC-2998 colon
HCT-116 colon = system: HCT-116 colon
HCT-15 colon = system: HCT-15 colon
HOP-62 NSCLC = system: HOP-62 NSCLC
HT29 colon = system: HT29 colon
IGROV1 ovarian = system: IGROV1 ovarian
K-562 leukemia = system: K-562 leukemia
KM12 colon = system: KM12 colon
KM20L2 colon = system: KM20L2 colon
LXFL 529 NSCLC = system: LXFL 529 NSCLC
M14 melanoma = system: M14 melanoma
M19-MEL melanoma = system: M19-MEL melanoma
MALME-3M melanoma = system: MALME-3M melanoma
MOLT-4 leukemia = system: MOLT-4 leukemia
NCI-H226 lung = system: NCI-H226 lung
NCI-H23 lung = system: NCI-H23 lung
NCI-H522 lung = system: NCI-H522 lung
OVCAR-3 ovarian = system: OVCAR-3 ovarian
OVCAR-4 ovarian = system: OVCAR-4 ovarian
OVCAR-5 ovarian = system: OVCAR-5 ovarian
OVCAR-8 ovarian = system: OVCAR-8 ovarian
RXF 393 renal = system: RXF 393 renal
RXF-631 renal = system: RXF-631 renal
SF-268 CNS = system: SF-268 CNS
SF-295 CNS = system: SF-295 CNS
SF-539 CNS = system: SF-539 CNS
SK-MEL-2 melanoma = system: SK-MEL-2 melanoma
SK-MEL-28 melanoma = system: SK-MEL-28 melanoma
SK-MEL-5 melanoma = system: SK-MEL-5 melanoma
SK-OV-3 ovarian = system: SK-OV-3 ovarian
SN12C renal = system: SN12C renal
SNB-19 CNS = system: SNB-19 CNS
SNB-75 CNS = system: SNB-75 CNS
SNB-78 CNS = system: SNB-78 CNS
SR leukemia = system: SR leukemia
SW-620 colon = system: SW-620 colon
TK-10 renal = system: TK-10 renal
U251 CNS = system: U251 CNS
UACC-257 melanoma = system: UACC-257 melanoma
UACC-62 melanoma = system: UACC-62 melanoma
UO-31 renal = system: UO-31 renal
XF 498 CNS = system: XF 498 CNS
DMS 114 small cell lung = system: DMS 114 small cell lung
HL-60(TB) leukemia = system: HL-60(TB) leukemia
LOX IMVI melanoma = system: LOX IMVI melanoma
NCI-H460 lung = system: NCI-H460 lung
RPMI-8226 leukemia = system: RPMI-8226 leukemia

## CC(=O)CC(=O)Nc1c(C)[c]([Hg][O]C(C)=O)c(C)[c]([Hg][O]C(C)=O)[c]1[Hg][O]C(C)=O
786-0 renal
  GI50: 10.9 µM
  TGI: 24.4 µM
A498 renal
  GI50: 15.3 µM
  TGI: 28.8 µM
A549 NSCLC
  GI50: 17.1 µM
  TGI: 34.2 µM
ACHN renal
  GI50: 14.2 µM
  TGI: 27.3 µM
CAKI-1 renal
  GI50: 18.6 µM
  TGI: 32.6 µM
CCRF-CEM leukemia
  GI50: 4.01 µM
  TGI: 49.5 µM
COLO 205 colon
  GI50: 33.3 µM
  TGI: > 100 µM
DLD-1 colon
  GI50: 13.6 µM
  TGI: 51.1 µM
DMS 273 small cell lung
  GI50: 18.4 µM
  TGI: 50.4 µM
EKVX NSCLC
  GI50: 20.6 µM
  TGI: 41.3 µM
HCC-2998 colon
  GI50: 17.6 µM
  TGI: 32.6 µM
HCT-116 colon
  GI50: 18.2 µM
  TGI: 41.1 µM
HCT-15 colon
  GI50: 15.1 µM
  TGI: 35.7 µM
HOP-62 NSCLC
  GI50: 20.8 µM
  TGI: 36.4 µM
HT29 colon
  GI50: 12.2 µM
  TGI: 30.5 µM
IGROV1 ovarian
  GI50: 15.4 µM
  TGI: 40.7 µM
K-562 leukemia
  GI50: 4 µM
  TGI: > 100 µM
KM12 colon
  GI50: 16.9 µM
  TGI: 34.8 µM
KM20L2 colon
  GI50: 18.8 µM
  TGI: 48.2 µM
LXFL 529 NSCLC
  GI50: 6.54 µM
  TGI: 20.7 µM
M14 melanoma
  GI50: 12.7 µM
  TGI: 29.8 µM
M19-MEL melanoma
  GI50: 15.4 µM
  TGI: 36.5 µM
MALME-3M melanoma
  GI50: 6.56 µM
  TGI: 20.4 µM
MOLT-4 leukemia
  GI50: 10.3 µM
  TGI: > 100 µM
NCI-H226 lung
  GI50: 29.4 µM
  TGI: 56.5 µM
NCI-H23 lung
  GI50: 10.6 µM
  TGI: 24.5 µM
NCI-H522 lung
  GI50: 10.4 µM
  TGI: 35.8 µM
OVCAR-3 ovarian
  GI50: 12.8 µM
  TGI: 25.5 µM
OVCAR-4 ovarian
  GI50: 15.6 µM
  TGI: 30.6 µM
OVCAR-5 ovarian
  GI50: 28.9 µM
  TGI: 71.8 µM
OVCAR-8 ovarian
  GI50: 10.9 µM
  TGI: 24.4 µM
RXF 393 renal
  GI50: 3.44 µM
  TGI: 16.2 µM
RXF-631 renal
  GI50: 2390 nM
  TGI: 7.75 µM
SF-268 CNS
  GI50: 15.4 µM
  TGI: 35.4 µM
SF-295 CNS
  GI50: 18.5 µM
  TGI: 36.2 µM
SF-539 CNS
  GI50: 18.1 µM
  TGI: 37.1 µM
SK-MEL-2 melanoma
  GI50: 16.1 µM
  TGI: 31.7 µM
SK-MEL-28 melanoma
  GI50: 12.6 µM
  TGI: 26.3 µM
SK-MEL-5 melanoma
  GI50: 2990 nM
  TGI: 11.3 µM
SK-OV-3 ovarian
  GI50: 20.9 µM
  TGI: 35.3 µM
SN12C renal
  GI50: 17.5 µM
  TGI: 33.3 µM
SNB-19 CNS
  GI50: 2470 nM
  TGI: 6.61 µM
SNB-75 CNS
  GI50: 12.9 µM
  TGI: 25.9 µM
SNB-78 CNS
  GI50: 22.7 µM
  TGI: 58.4 µM
SR leukemia
  GI50: 5.31 µM
  TGI: > 100 µM
SW-620 colon
  GI50: 10 µM
  TGI: 27.4 µM
TK-10 renal
  GI50: 13 µM
  TGI: 25.7 µM
U251 CNS
  GI50: 11.7 µM
  TGI: 24.6 µM
UACC-257 melanoma
  GI50: 14.4 µM
  TGI: 28.5 µM
UACC-62 melanoma
  GI50: 11.8 µM
  TGI: 24.1 µM
UO-31 renal
  GI50: 22.4 µM
  TGI: 40 µM
XF 498 CNS
  GI50: 4.38 µM
  TGI: 15.6 µM

## CC1CCN(CCC(=O)CC(c2ccccc2)c2c(O)c3ccccc3oc2=O)CC1 (stereo unspecified)
786-0 renal
  TGI: > 100 µM
A498 renal
  TGI: > 100 µM
A549 NSCLC
  TGI: > 100 µM
ACHN renal
  TGI: > 100 µM
CAKI-1 renal
  TGI: > 100 µM
CCRF-CEM leukemia
  TGI: > 100 µM
COLO 205 colon
  TGI: > 100 µM
DLD-1 colon
  TGI: > 100 µM
DMS 114 small cell lung
  TGI: > 100 µM
DMS 273 small cell lung
  TGI: > 100 µM
EKVX NSCLC
  TGI: > 100 µM
HCT-116 colon
  TGI: > 100 µM
HCT-15 colon
  TGI: > 100 µM
HL-60(TB) leukemia
  TGI: > 100 µM
HOP-62 NSCLC
  TGI: > 100 µM
HT29 colon
  TGI: > 100 µM
IGROV1 ovarian
  TGI: > 100 µM
K-562 leukemia
  TGI: > 100 µM
KM12 colon
  TGI: > 100 µM
KM20L2 colon
  TGI: > 100 µM
LOX IMVI melanoma
  TGI: > 100 µM
M14 melanoma
  TGI: > 100 µM
M19-MEL melanoma
  TGI: > 100 µM
MOLT-4 leukemia
  TGI: > 100 µM
NCI-H226 lung
  TGI: > 100 µM
NCI-H23 lung
  TGI: > 100 µM
NCI-H460 lung
  TGI: > 100 µM
NCI-H522 lung
  TGI: > 100 µM
OVCAR-3 ovarian
  TGI: > 100 µM
OVCAR-4 ovarian
  TGI: > 100 µM
OVCAR-8 ovarian
  TGI: > 100 µM
RPMI-8226 leukemia
  TGI: > 100 µM
RXF 393 renal
  TGI: > 100 µM
RXF-631 renal
  TGI: > 100 µM
SF-268 CNS
  TGI: > 100 µM
SF-295 CNS
  TGI: > 100 µM
SF-539 CNS
  TGI: > 100 µM
SK-MEL-2 melanoma
  TGI: > 100 µM
SK-MEL-28 melanoma
  TGI: > 100 µM
SK-MEL-5 melanoma
  TGI: > 100 µM
SK-OV-3 ovarian
  TGI: > 100 µM
SNB-19 CNS
  TGI: > 100 µM
SNB-75 CNS
  TGI: > 100 µM
SNB-78 CNS
  TGI: > 100 µM
SR leukemia
  TGI: > 100 µM
SW-620 colon
  TGI: > 100 µM
TK-10 renal
  TGI: > 100 µM
U251 CNS
  TGI: > 100 µM
UACC-257 melanoma
  TGI: > 100 µM
UACC-62 melanoma
  TGI: > 100 µM
UO-31 renal
  TGI: > 100 µM
XF 498 CNS
  TGI: > 100 µM
